How the values were obtained:
[1] = target: T1, Neuropeptide Y receptor type 2 (Homo sapiens, UniProt P49146); format: cell membranes, Membrane; settings: kan-ts; note: in other assays of this panel Not Active means under 50% inhibition at 10 µM
T1 sequence (P49146 whole entry): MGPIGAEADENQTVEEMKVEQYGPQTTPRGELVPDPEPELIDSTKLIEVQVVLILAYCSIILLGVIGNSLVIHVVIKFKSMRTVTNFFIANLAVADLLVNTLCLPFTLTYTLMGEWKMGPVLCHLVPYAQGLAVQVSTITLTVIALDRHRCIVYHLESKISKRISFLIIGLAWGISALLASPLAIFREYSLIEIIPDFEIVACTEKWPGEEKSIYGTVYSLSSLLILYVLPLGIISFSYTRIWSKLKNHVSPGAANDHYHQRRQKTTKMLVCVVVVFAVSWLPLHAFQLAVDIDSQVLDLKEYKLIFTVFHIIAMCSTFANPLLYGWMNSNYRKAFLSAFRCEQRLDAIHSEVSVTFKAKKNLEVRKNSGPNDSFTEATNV

Vasopressin V1a receptor = Vasopressin V1a receptor (Homo sapiens, UniProt P37288); format: cell membranes, Membrane; settings: hek293; note: in other assays of this panel Not Active means under 50% inhibition at 10 µM
[2] = target: T2, Alpha-2C adrenergic receptor (Homo sapiens, UniProt P18825); assay: DRUGMATRIX: Adrenergic Alpha-2C radioligand binding (ligand: [3H] MK-912); format: cell membranes, Sf9, Membrane; settings: sf9
T2 sequence (P18825 whole entry): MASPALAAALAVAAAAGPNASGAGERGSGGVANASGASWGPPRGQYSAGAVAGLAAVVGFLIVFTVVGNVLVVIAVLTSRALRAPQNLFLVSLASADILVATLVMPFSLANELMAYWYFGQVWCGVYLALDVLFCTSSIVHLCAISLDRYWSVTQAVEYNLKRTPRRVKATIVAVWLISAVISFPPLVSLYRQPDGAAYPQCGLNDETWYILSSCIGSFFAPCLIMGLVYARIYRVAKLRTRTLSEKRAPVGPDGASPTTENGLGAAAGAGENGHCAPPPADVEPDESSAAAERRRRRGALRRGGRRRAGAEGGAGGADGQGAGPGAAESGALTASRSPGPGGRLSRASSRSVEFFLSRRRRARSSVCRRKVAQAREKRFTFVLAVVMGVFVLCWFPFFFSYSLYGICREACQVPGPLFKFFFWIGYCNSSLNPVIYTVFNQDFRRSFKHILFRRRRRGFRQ

[3] = target: T3, Alpha-1B adrenergic receptor (Rattus norvegicus, UniProt P15823); assay: DRUGMATRIX: Alpha-1B adrenergic receptor radioligand binding (ligand: prazosin); format: cell membranes, Wistar, Liver, Membrane; settings: Not Active = under 50% inhibition at 10 µM
T3 sequence (P15823 whole entry): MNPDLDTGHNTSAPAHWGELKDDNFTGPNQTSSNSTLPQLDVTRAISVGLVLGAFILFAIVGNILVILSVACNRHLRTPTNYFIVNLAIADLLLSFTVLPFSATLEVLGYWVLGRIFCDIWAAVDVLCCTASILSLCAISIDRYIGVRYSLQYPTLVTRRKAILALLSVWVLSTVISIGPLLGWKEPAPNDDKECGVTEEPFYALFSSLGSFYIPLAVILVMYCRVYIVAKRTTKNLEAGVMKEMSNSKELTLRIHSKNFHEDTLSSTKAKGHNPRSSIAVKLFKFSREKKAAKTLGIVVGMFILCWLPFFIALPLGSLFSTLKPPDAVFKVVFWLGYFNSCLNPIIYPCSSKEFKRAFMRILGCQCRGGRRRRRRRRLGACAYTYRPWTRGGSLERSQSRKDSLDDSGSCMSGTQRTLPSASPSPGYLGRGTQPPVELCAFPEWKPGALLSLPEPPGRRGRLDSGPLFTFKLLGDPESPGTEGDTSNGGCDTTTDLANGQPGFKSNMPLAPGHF

[4] = DRUGMATRIX: Phosphodiesterase PDE3 enzyme inhibition (substrate: [3H]cAMP + cAMP); format: tissue-based, Homo sapiens; settings: platelet; Not Active = under 50% inhibition at 10 µM
[5] = target: Protein kinase C alpha type (Homo sapiens, UniProt P17252); format: cell-based; settings: sf9;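 note: inhibition of PKCalpha kinase activity measured in an enzyme assay with histone as the phosphorylation substrate; in other assays of this panel Not Active means under 50% inhibition at 10 µM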
[6] = target: T4, Angiotensin-converting enzyme (Oryctolagus cuniculus, UniProt P12822); assay: biochemical; format: tissue-based, Lung;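 note: enzymatic inhibition of angiotensin-converting enzyme measured with FAPGG as the substrate; in other assays of this panel Not Active means under 50% inhibition at 10 µM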
T4 sequence (P12822 whole entry): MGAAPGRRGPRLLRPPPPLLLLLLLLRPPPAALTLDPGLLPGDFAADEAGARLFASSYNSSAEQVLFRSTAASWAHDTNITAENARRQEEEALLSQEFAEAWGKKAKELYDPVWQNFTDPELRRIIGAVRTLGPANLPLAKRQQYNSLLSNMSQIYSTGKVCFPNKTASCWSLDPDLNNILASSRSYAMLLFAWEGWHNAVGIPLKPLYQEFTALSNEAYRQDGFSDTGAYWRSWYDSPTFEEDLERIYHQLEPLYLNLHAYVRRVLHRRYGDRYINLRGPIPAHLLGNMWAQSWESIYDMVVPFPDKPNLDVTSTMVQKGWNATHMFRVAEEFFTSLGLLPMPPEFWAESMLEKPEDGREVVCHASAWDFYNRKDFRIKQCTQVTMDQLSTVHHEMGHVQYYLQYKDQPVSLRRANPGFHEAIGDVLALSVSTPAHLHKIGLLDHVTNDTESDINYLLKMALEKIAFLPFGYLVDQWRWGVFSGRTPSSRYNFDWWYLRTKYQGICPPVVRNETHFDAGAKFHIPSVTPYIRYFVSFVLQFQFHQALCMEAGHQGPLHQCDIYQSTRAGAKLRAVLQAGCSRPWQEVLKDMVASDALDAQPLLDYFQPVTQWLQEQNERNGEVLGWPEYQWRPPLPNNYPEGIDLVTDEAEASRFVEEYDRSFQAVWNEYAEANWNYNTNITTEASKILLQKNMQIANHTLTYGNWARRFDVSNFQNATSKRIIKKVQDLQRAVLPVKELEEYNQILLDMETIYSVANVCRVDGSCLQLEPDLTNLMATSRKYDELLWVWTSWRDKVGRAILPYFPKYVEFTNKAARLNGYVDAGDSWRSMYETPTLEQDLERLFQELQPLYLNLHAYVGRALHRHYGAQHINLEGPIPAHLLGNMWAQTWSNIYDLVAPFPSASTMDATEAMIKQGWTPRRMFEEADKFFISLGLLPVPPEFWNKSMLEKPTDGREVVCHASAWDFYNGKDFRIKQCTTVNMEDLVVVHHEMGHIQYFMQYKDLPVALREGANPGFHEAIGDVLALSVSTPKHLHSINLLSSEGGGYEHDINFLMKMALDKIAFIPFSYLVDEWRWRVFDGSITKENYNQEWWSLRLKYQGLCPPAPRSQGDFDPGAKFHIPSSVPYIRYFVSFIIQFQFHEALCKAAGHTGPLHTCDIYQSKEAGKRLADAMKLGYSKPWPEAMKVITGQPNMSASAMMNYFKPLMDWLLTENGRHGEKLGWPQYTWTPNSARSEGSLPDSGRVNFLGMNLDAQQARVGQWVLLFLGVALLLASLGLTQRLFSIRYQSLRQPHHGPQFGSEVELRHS

[7] = target: 5-hydroxytryptamine receptor 1B (Rattus norvegicus, UniProt P28564); format: cell membranes, Wistar, Cerebral cortex, Membrane; note: in other assays of this panel Not Active means under 50% inhibition at 10 µM
5-hydroxytryptamine receptor 1B, sequence (P28564 whole entry): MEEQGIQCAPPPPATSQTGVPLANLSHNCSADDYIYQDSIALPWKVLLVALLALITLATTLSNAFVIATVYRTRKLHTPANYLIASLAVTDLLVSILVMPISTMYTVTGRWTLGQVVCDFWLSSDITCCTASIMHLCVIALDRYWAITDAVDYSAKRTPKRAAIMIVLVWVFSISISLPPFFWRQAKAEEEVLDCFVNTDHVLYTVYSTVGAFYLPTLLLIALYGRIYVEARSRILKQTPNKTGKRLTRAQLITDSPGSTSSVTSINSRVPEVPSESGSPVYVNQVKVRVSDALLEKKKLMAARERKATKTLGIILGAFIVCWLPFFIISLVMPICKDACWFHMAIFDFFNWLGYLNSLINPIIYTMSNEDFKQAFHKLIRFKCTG

Vasopressin V1a receptor, sequence (P37288 whole entry): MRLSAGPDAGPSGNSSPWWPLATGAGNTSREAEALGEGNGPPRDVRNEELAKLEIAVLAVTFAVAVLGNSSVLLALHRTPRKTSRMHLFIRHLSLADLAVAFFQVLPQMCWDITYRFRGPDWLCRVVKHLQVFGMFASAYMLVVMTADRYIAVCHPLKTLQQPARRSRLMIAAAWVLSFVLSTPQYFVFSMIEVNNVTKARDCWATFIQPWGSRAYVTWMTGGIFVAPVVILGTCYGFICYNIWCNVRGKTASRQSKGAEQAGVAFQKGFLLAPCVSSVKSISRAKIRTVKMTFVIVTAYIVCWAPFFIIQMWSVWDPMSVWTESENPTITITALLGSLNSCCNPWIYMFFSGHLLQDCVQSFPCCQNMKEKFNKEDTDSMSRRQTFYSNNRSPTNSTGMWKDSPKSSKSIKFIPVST

Compound	IC50 [1]	Ki [1]	IC50 (Vasopressin V1a receptor)	Ki (Vasopressin V1a receptor)	IC50 ([2]; read-out: IC50) [nM]	Ki ([2]; read-out: Ki) [nM]	IC50 [3]	Ki [3]	IC50 [4]	Ki [4]	IC50 [5]	Ki [5]	IC50 [6]	Ki [6]	IC50 [7]	Ki [7]	IC50 [2]	IC50 ([3]; read-out: IC50) [nM]	Ki ([3]; read-out: Ki) [nM]
IVERMECTIN	Not Active	Not Active	Not Active	Not Active	3920	570	Not Active	Not Active	Not Active	Not Active	Not Active	Not Active	Not Active	Not Active	Not Active	Not Active	–	–	–
CO[C@@H]1[C@@H](O[C@@H]2O[C@H](C)[C@@H](O[C@H]3C[C@@](C)(O)[C@@H](OC(=O)CC(C)C)[C@H](C)O3)[C@H](N(C)C)[C@H]2O)[C@@H](CC=O)C[C@@H](C)[C@@H](O)/C=C/C=C/C[C@@H](C)OC(=O)C[C@H]1O [KITASAMYCIN]	Not Active	–	Not Active	–	–	–	Not Active	–	Not Active	Not Active	Not Active	–	Not Active	–	Not Active	–	Not Active	–	–
CN(N=O)C(=O)N[C@@H](C=O)[C@@H](O)[C@H](O)[C@H](O)CO [STREPTOZOCIN]	Not Active	–	Not Active	–	–	–	Not Active	–	Not Active	Not Active	Not Active	–	Not Active	–	Not Active	–	Not Active	–	–
CC(C)(C)NCC(O)c1cc(O)cc(O)c1 (stereo unspecified) [TERBUTALINE]	Not Active	–	Not Active	–	–	–	Not Active	–	Not Active	Not Active	Not Active	–	Not Active	–	Not Active	–	Not Active	–	–
O=C1c2c(O)ccc(O)c2C(=O)c2c(NCCNCCO)ccc(NCCNCCO)c21 [MITOXANTRONE]	Not Active	–	Not Active	–	–	–	Not Active	–	Not Active	Not Active	Not Active	–	Not Active	–	Not Active	–	Not Active	–	–
Nc1ccc(S(N)(=O)=O)cc1 [SULFANILAMIDE]	Not Active	–	Not Active	–	–	–	Not Active	–	Not Active	Not Active	Not Active	–	Not Active	–	Not Active	–	Not Active	–	–
CC[C@H]1OC(=O)[C@H](C)[C@@H](O[C@H]2C[C@@](C)(OC)[C@@H](O)[C@H](C)O2)[C@H](C)[C@@H](O[C@@H]2O[C@H](C)C[C@H](N(C)C)[C@H]2O)[C@](C)(O)C[C@@H](C)/C(=N\OCOCCOC)[C@H](C)[C@@H](O)[C@]1(C)O [ROXITHROMYCIN]	Not Active	–	Not Active	–	–	–	–	–	Not Active	Not Active	Not Active	–	Not Active	–	Not Active	–	Not Active	989	548
COC(=O)c1ccc(O)cc1 [METHYLPARABEN]	Not Active	–	Not Active	–	–	–	Not Active	–	Not Active	Not Active	Not Active	–	Not Active	–	Not Active	–	Not Active	–	–
NC(CO)(CO)CO [TROMETHAMINE]	Not Active	–	Not Active	–	–	–	Not Active	–	Not Active	Not Active	Not Active	–	Not Active	–	Not Active	–	Not Active	–	–
CCOC(=O)[C@H](CCc1ccccc1)N[C@@H](C)C(=O)N1[C@H](C(=O)O)C[C@@H]2CCC[C@@H]21	Not Active	–	Not Active	–	–	–	Not Active	–	Not Active	Not Active	Not Active	–	Not Active	–	Not Active	–	Not Active	–	–
COc1cc(C(=O)NC2CCCNC2)cc(OC)c1OC (stereo unspecified) [TROXIPIDE]	Not Active	–	Not Active	–	–	–	Not Active	–	Not Active	Not Active	Not Active	–	Not Active	–	Not Active	–	Not Active	–	–
CCC[C@@H]1C[C@@H](C(=O)N[C@@H]([C@H]2O[C@H](SC)[C@H](O)[C@@H](O)[C@H]2O)[C@@H](C)O)N(C)C1 [LINCOMYCIN]	Not Active	–	Not Active	–	–	–	Not Active	–	Not Active	Not Active	Not Active	–	Not Active	–	Not Active	–	Not Active	–	–

Source: ChEMBL document CHEMBL1909046, “DrugMatrix in vitro pharmacology data”
